In PMC12302426, “Dihydrokoumine, a dual-target analgesic with reduced side effects isolated from a traditional Chinese medicine” (Journal of Advanced Research, 2024):

Key:
C57BL/6 male mice [1] = experiment: Formalin paw test; format: in vivo
Experimental: The formalin test in mice was conducted following established procedures. Six-week-old C57BL/6 male mice were used in […] (n = 6). Mice were individually acclimated in a 4-liter glass beaker for 30 min prior to the test. Solvent mixture, […], morphine (5 mg/kg), or DK (20, 40 mg/kg) were injected intraperitoneally (5 mL/kg) 15 min prior to formalin injection. Formalin solution (5 %, 25 μL) was injected into the dorsal surface of the right hind paw using a 50 μL Hamilton syringe with a 30-gauge needle. […] Evaluation of MOR agonistic activity of dihydrokoumine, naloxone (2 mg/kg) was first injected intraperitoneally, immediately followed by the injection of morphine (5 mg/kg) or DK (20 mg/kg).

HEK293T cells = experiment: Cytotoxicity assay (CCK-8), HEK293T; format: cell-based; conditions: 24 h
Experimental: (§1) HEK293T, CHO, and HUVEC cell lines were cultured overnight in 96-well plates before exposure to compounds for 24 h. Cell viability was evaluated using the Cell Counting Kit-8 (CCK-8, Beyotime Biotechnology, China), and absorbance at 450 nm was measured with a microplate reader. Cell survival rates were calculated relative to control conditions.

M2R = target: T1, M2R (Homo sapiens, UniProt P08172); experiment: FLIPR assay in HEK293-M2 cells (carbachol-induced Ca2+); format: cell-based; conditions: DK pretreatment one hour
T1 construct: expressed in transfected cells
Experimental: (§2) FLIPR assay was carried out as reported earlier. Cell lines were seeded in 96-well plates with black walls (Greiner, USA) at 8.0 × 10^4 cells per well. After approximately 22 h of incubation, the cells were exposed to Calcium-6 dye (Molecular Devices, USA) in HBSS buffer supplemented with 20 mM HEPES (pH 7.4) at 37°C for one hour. Samples, redissolved in DMSO and housed in 96-well drug plates, underwent dilution with FLIPR buffer and subsequent automated introduction to the cells. […] […] Results were presented as fluorescence (arbitrary units) plotted against time.

dopamine receptor D2 = target: T2, dopamine receptor D2 (Homo sapiens, UniProt P14416); experiment: DMR desensitization assay, HEK293-D2, probe dopamine; format: cell-based; conditions: 100 μM DK
T2 construct: expressed in transfected cells; host or cells: HEK293-D2
Experimental: (§3) DMR assays were performed using an Epic® BT system (Corning, NY, USA). All used cell lines were directly seeded in Epic 384-well biosensor microplates with a seeding density of 25,000 cells per well. After being cultured for about 22 h, the cells formed a monolayer with a confluency of about 95 % in the cell culture medium. Then the cells were manually washed using assay buffer (1 × HBSS buffer, 10 mM HEPES, pH = 7.4) and maintained in 30 μL of the assay buffer for 1 h. All samples were dissolved in DMSO and diluted freshly with the assay buffer containing 0.1 % BSA.
(§4) The receptor selectivity was evaluated against a set of G protein-coupled receptors (GPCRs), including opioid receptor (Delta/Kappa/NOP), dopamine receptor (D1/D2), orphan receptor (GPR35), adrenergic receptor (α2A/β2), serotonin receptor (5HT2A), histamine receptor (H1) and cannabinoid receptor (CB1). Following a 1-hour pretreatment with DK, a 2-min baseline was established before introducing probes and monitoring DMR signals for another hour. The cells and probes were as follows: Delta, HEK293-Delta, SNC162; Kappa, HEK293-Kappa, ICI199441; NOP, HEK293-NOP, MCOPPB; D1, HEK293-D1, dopamine; D2, HEK293-D2, dopamine; GPR35, CHO-K1-hGPR35, zaprinast; 5HT2A, HEK293-5HT2A, 5-hydroxytryptamine; α2A, HEK293-α2A, L-Noradrenaline; β2, A431, isoprenaline; H1, A431, histamine; CB1, CHO-K1-CB1, CP 55940. […]

HEK293 cells = experiment: DMR assay in untransfected HEK293 cells (background); format: cell-based; conditions: HEK293 cells without MOR
Experimental: as §3
(§5) The DMR assays were conducted as follows. […] In the case of the DMR desensitization assay, cells were pretreated with analytes for one hour before introducing a specific agonist at the indicated concentration, and the agonist-induced DMR signals were monitored for one hour. Finally, for the DMR antagonist assay, cells underwent a 1-hour pretreatment with an antagonist before the addition of a specific agonist at the indicated concentration, and subsequent DMR signals were recorded over one hour.

adrenergic receptor α2A = target: T3, adrenergic receptor α2A (Homo sapiens, UniProt P08913); experiment: DMR desensitization assay, HEK293-α2A, probe L-Noradrenaline; format: cell-based; conditions: 100 μM DK
T3 construct: expressed in transfected cells; host or cells: HEK293-α2A
Experimental: as §3, §4

NOP opioid receptor = target: T4, NOP opioid receptor (Homo sapiens, UniProt P41146); experiment: DMR agonist and desensitization assay in HEK293-NOP cells; format: cell-based
T4 construct: expressed in transfected cells; host or cells: HEK293-NOP
Experimental: as §3, §5
The receptor selectivity was evaluated against a set of G protein-coupled receptors (GPCRs), including opioid receptor (Delta/Kappa/NOP), dopamine receptor (D1/D2), orphan receptor (GPR35), adrenergic receptor (α2A/β2), serotonin receptor (5HT2A), histamine receptor (H1) and cannabinoid receptor (CB1). […]

C57BL/6 male mice [2] = experiment: Hot-plate assay (acute pain); format: in vivo
Experimental: The hot-plate test in mice was conducted following previously established method. Six-week-old C57BL/6 male mice were used in hot-plate assay (n = 6). Hot-plate response latency (55°C) after drug treatment was used to measure antinociceptive effect, where response was defined by the animal either by licking paws, flicking paws or jumping. Mice were exposed to the hot plate (Ugo Basile model 7280, Comerio, Italy) for a maximum of 20 s to avoid tissue damage. After three days’ baseline measure, mice were injected intraperitoneally (5 mL/kg) with the solvent mixture, morphine (5 mg/kg) or DK (20, 40 mg/kg) and latency was tested 0.5-, 1-, 2-, 3- and 4- hours post-administration. Evaluation of MOR agonistic and M3R antagonistic activity of DK, naloxone (2 mg/kg) and oxotremorine (0.4 mg/kg) were first injected intraperitoneally, immediately followed by the injection of morphine (5 mg/kg, evaluation of MOR) or DK (20 mg/kg).

cannabinoid receptor CB1 = target: T5, cannabinoid receptor CB1 (Homo sapiens, UniProt P21554); experiment: DMR desensitization assay, CHO-K1-CB1, probe CP 55940; format: cell-based; conditions: 100 μM DK
T5 construct: expressed in transfected cells; host or cells: CHO-K1-CB1
Experimental: as §3, §4

CHO cells = experiment: Cytotoxicity assay (CCK-8), CHO; format: cell-based; conditions: 24 h
Experimental: as §1

HUVEC cells = experiment: Cytotoxicity assay (CCK-8), HUVEC; format: cell-based; conditions: 24 h
Experimental: as §1

mu opioid receptor (MOR) = target: T6, mu opioid receptor (MOR) (Homo sapiens, UniProt P35372); experiment: DMR assay in HEK293T-Mu cells (agonist, desensitization, antagonist); format: cell-based
T6 construct: expressed in transfected cells; host or cells: HEK293T-Mu
Experimental: as §3, §5

M4R = target: T7, M4R (Homo sapiens, UniProt P08173); experiment: FLIPR assay in HEK293-M4 cells (carbachol-induced Ca2+); format: cell-based; conditions: DK pretreatment one hour
T7 construct: expressed in transfected cells
Experimental: as §2

M1R = target: T8, M1R (Homo sapiens, UniProt P11229); experiment: FLIPR assay in CHO-M1 cells (carbachol-induced Ca2+); format: cell-based; conditions: DK pretreatment one hour
T8 construct: expressed in transfected cells
Experimental: as §2

T6 sequence (P35372 whole entry): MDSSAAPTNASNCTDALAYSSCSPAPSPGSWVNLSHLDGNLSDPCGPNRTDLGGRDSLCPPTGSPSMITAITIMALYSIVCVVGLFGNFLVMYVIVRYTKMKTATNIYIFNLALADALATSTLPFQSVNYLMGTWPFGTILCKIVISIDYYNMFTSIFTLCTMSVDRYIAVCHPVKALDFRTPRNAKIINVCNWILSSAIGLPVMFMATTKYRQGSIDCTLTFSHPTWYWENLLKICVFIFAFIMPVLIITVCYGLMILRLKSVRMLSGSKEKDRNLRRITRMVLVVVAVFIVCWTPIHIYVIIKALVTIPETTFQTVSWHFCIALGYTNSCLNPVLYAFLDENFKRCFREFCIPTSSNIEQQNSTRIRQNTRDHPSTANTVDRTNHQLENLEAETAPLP
T4 sequence (P41146 whole entry): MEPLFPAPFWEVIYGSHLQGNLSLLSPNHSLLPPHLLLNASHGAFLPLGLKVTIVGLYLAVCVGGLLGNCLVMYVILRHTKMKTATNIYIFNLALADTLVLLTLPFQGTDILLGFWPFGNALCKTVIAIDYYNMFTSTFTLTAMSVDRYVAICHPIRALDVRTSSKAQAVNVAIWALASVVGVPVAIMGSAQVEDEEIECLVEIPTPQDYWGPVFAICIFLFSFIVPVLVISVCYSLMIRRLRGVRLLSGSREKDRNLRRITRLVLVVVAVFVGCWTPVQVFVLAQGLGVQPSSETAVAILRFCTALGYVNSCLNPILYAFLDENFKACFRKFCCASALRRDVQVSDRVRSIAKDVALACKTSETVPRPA
T8 sequence (P11229 whole entry): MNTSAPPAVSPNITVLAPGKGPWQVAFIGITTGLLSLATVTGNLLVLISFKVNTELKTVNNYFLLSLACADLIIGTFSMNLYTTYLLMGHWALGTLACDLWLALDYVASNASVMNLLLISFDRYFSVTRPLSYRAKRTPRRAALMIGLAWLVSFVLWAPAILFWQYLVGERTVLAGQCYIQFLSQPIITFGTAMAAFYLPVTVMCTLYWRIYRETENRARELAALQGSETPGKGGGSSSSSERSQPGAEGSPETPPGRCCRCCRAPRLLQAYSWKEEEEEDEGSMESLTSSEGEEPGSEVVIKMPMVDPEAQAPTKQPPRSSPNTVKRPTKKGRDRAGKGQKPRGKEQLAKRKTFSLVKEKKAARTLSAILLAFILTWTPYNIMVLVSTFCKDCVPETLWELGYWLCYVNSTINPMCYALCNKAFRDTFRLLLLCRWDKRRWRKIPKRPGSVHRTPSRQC
T3 sequence (P08913 whole entry): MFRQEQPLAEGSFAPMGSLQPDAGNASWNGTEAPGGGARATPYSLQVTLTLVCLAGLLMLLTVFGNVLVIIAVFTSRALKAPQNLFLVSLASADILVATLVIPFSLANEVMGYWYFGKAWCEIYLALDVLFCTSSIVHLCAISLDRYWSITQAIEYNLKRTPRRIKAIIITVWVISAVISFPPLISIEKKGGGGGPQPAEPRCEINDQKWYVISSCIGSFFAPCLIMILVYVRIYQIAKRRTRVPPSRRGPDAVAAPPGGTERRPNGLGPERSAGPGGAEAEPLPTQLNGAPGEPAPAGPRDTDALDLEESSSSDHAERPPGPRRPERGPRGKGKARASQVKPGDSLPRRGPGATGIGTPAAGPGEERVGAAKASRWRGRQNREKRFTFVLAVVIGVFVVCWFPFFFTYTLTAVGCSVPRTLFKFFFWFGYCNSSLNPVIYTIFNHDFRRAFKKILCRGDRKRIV
T7 sequence (P08173 whole entry): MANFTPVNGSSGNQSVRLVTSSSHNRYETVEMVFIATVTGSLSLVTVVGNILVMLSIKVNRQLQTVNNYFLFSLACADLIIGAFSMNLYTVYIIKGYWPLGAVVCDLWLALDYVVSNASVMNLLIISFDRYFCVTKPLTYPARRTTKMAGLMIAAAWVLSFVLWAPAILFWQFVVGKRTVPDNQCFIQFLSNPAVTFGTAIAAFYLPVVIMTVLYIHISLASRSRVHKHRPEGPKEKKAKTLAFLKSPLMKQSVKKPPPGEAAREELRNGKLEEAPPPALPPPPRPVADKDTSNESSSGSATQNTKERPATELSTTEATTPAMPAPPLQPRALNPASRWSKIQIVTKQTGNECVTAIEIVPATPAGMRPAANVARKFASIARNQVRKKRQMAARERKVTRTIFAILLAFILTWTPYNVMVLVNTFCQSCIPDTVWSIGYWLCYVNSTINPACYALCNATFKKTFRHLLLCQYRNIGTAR
T5 sequence (P21554 whole entry): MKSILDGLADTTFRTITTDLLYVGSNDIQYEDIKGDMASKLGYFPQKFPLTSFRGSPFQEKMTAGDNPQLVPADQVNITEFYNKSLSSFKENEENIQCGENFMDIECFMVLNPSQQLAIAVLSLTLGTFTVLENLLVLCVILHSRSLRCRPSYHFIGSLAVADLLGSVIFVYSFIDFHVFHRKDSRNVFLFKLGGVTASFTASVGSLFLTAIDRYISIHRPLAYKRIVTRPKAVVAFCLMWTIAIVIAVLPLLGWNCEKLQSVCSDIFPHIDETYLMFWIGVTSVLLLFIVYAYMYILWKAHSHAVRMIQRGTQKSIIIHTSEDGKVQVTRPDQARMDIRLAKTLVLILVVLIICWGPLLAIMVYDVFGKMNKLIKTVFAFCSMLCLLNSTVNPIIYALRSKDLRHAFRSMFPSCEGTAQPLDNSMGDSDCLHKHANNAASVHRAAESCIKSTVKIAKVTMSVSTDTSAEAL
T2 sequence (P14416 whole entry): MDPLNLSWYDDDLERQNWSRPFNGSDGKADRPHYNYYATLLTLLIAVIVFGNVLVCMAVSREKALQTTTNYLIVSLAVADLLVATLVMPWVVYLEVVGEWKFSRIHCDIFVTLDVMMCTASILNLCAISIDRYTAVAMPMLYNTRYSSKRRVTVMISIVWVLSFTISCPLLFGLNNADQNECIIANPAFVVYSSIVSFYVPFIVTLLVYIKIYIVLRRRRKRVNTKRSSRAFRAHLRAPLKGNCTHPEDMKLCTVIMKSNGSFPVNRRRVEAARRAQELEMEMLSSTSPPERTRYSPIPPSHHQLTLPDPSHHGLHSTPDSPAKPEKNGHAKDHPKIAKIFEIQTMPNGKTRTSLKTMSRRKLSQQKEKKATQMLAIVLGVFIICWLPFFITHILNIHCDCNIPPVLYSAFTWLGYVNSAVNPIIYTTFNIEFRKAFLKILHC
T1 sequence (P08172 whole entry): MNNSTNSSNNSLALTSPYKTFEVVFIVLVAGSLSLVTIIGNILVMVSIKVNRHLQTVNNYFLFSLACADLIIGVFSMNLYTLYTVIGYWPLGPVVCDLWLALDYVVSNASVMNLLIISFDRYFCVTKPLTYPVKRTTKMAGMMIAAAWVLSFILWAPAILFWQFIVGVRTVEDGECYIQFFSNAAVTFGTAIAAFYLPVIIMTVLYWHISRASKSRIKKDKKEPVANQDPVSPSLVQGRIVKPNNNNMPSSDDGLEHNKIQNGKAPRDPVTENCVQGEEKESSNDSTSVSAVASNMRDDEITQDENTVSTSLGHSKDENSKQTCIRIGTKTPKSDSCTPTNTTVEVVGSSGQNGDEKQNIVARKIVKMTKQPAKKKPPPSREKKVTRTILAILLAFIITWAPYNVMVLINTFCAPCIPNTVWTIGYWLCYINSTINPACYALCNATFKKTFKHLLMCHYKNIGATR

## C=CC12CN(C)C3CC14c1ccccc1NC4C1CC2C3CO1 (stereo not shown) [DK]
C57BL/6 male mice [1]; DK 20 mg/kg, naloxone 2 mg/kg
  effect of naloxone on antinociception in formalin test: Naloxone antagonized the antinociception of DK
C57BL/6 male mice [1]; DK 20, 40 mg/kg i.p., formalin 5 %
  licking time in Phase I and Phase II: remarkable decrease in the licking time in Phase I at both doses and in Phase II at high doses
HEK293T cells
  cytotoxicity (cell viability): had a little effect on HEK293T cells but not in a concentration-dependent manner
M2R
  inhibition of carbachol-induced Ca2+ response: could not concentration-dependently inhibit
Dopamine receptor D2
  reduction of probe DMR response (desensitization): almost unable to reduce the response
HEK293 cells
  background DMR response: No background response
Adrenergic receptor α2A
  reduction of probe DMR response (desensitization): almost unable to reduce the response
NOP opioid receptor; HEK293-NOP cells
  DMR agonist response: unable to trigger a concentration-dependent DMR response
NOP opioid receptor; HEK293-NOP, 25 nM MCOPPB, pretreatment one hour
  probe-induced DMR response after DK pretreatment: had little effect on the DMR response produced by the respective probes
C57BL/6 male mice [2]; DK 20 mg/kg, naloxone 2 mg/kg
  effect of naloxone on pain threshold in hot plate assay: naloxone failed to decrease the pain threshold of DK
C57BL/6 male mice [2]; DK 20 mg/kg, oxotremorine 0.4 mg/kg
  effect of oxotremorine on antinociception in hot plate assay: oxotremorine markedly diminished the antinociceptive efficacy of DK
C57BL/6 male mice [2]; DK 20, 40 mg/kg i.p.
  duration of antinociception: at least 3 h
C57BL/6 male mice [2]; DK 20, 40 mg/kg i.p., 55°C
  antinociception (hot-plate response latency): potent antinociception in a dose-dependent manner
Cannabinoid receptor CB1
  reduction of probe DMR response (desensitization): almost unable to reduce the response
CHO cells
  cytotoxicity (cell viability): noncytotoxic
HUVEC cells
  cytotoxicity (cell viability): noncytotoxic
Mu opioid receptor (MOR)
  maximum DMR response compared with endomorphin-1: half of the maximum DMR response of endomorphin-1
Mu opioid receptor (MOR); 100 μM DK, naloxone pretreatment one hour
  DMR response after naloxone pretreatment: could be antagonized by naloxone
Mu opioid receptor (MOR); DMR agonist assay, read-out: EC50 of DMR response
  EC50: 16.3 ± 1.05 µM
Mu opioid receptor (MOR); semisynthesized material
  concentration-dependent DMR response at MOR compared with purified DK: its activity was close to that of purified DK
M4R
  inhibition of carbachol-induced Ca2+ response: could not concentration-dependently inhibit
M1R
  inhibition of carbachol-induced Ca2+ response: could not concentration-dependently inhibit
